Legend:
[1] = Phase I clinical trial: plasma pharmacokinetics; format: in vivo, human
Procedure: In addition, plasma samples were collected on day 15 (˜24 hrs post final dose) to evaluate steady-state trough levels. Bioanalysis of the compound was initially conducted at Consolidated Laboratory Services (CLS), Van Nuys, Calif. […] The coefficient of variation (CV %) for AUCO-24 at steady-state is modest at the lowest dose of 12 mg (33%) and high for the 450 mg cohort (82%). While the variability tended to be higher at higher doses, there was not a clear relationship between variability and either dose or […].
This analysis was conducted at MicroConstants, San Diego, Calif.

[2] = Animal toxicology studies; format: in vivo
[3] = system: relapsed or refractory acute myeloid leukemia; assay: Phase I clinical trial: efficacy, responses per modified Cheson criteria; format: in vivo, human
Procedure: The study was open labeled and designed to determine the safety, tolerability, dose limiting toxicity (DLT), pharmacokinetics and pharmacodynamics of escalating doses.
The study included adult patients with relapsed or refractory AML, or unsuitable for induction chemotherapy.
Patients with clinical benefit were allowed to continue for additional cycles at the discretion of the investigator. The protocol was subsequently amended to allow for continuous dosing of the compound starting at 200 mg on Day 1.
Preliminary response data was evaluated in all 76 patients treated with the compound.
Responses were defined per modified Cheson criteria.

pSTAT5 = assay: Pharmacodynamics: pSTAT5 in patient samples; format: in vivo, human; details: subset of 17 patients, very preliminary
Source text: STATS is a downstream signaling pathway activated by FLT3 following binding of FLT3 ligand leading to receptor dimerization, increased kinase activity and activation of downstream signaling pathways including STATS.

[4] = Phase I clinical trial: safety, tolerability, dose limiting toxicity; format: in vivo, human
Source text: This study was the first human clinical trial of the compound of Formula I or a pharmaceutically acceptable salt or solvate thereof in humans having relapsed or refractory acute myeloid leukemia. The study was open labeled and designed to determine the safety, tolerability, dose limiting toxicity (DLT), pharmacokinetics and pharmacodynamics of escalating doses.
The study included adult patients with relapsed or refractory AML, or unsuitable for induction chemotherapy. Demographics and baseline characteristics were as follows: median age was 60 years, with a range of 23-86 years. Sixty percent of the patients were male. […] Eleven (15%) patients had prior allogeneic hematopoietic stem cell transplant (HSCT) and 13 (17%) patients had secondary AML with antecedent MDS or MDS/MPD. A total of 20 patients had FLT3 mutations (17 ITD and 3 D835), 43 were wild-type, and 13 were undetermined.
Patients with clinical benefit were allowed to continue for additional cycles at the discretion of the investigator. The protocol was subsequently amended to allow for continuous dosing of the compound starting at 200 mg on Day 1. In addition to patients included in the 200 mg (17 patients) and 300 mg (8 patients) continuous dosing cohort, there were at least 8 patients who, at the investigators discretion and per protocol, received continuous dosing after cycle 1 of intermittent dosing ranging from 19-187 days.
In addition, the safety profile was similar between patients receiving continuous dosing and those on the intermittent schedule. These included general disorders (e.g., pyrexia and fatigue), gastrointestinal disorders (e.g., nausea, diarrhea and vomiting) and hematologic disorders (eg, anemia, neutropenia and thrombocytopenia).
Out of the 76 patients treated with the compound in this study, 38 patients (50%) reported a total of 94 serious adverse events (SAEs) (defined as CTC Grade 3 or greater). The majority of the SAEs were considered by the investigator to be not related to study treatment. Only 6 patients (7.9%) reported SAEs that were initially considered to be related to treatment with the compound. These included one patient with lung infection, one patient with vomiting and one patient with nausea, anorexia, and upper abdominal pain. The investigator subsequently revised the event of anorexia for the patient to non-serious. In addition, three patients were noted by the site investigators using local ECG analysis to have reported Grade 3 QTc prolongation of >500 ms which was considered to be a dose-limiting toxicity for the study according to the protocol.
Based on the site reported dose-limiting toxicity of Grade 3 QTc prolongation, a detailed evaluation of the cardiac safety of the compound was conducted. As defined in the protocol, a single 12-lead electrocardiogram (ECG) had been performed using standardized equipment at the site at Visits 1 (screen), 2 (Baseline—at Hours 0, 2, and 4), 4 (Day 8 at Hours 0 and 4), and depending on the version of the protocol active at the time of assessment for each patient, 6 (Day 14 or 15), 7 (Day 21 or 22), 8 (Day 28 or 29), 9 (Day 36), 10 (Day 43), 11 (Day 50), 12 (Day 57) and at the end of the study or early termination. ECG assessments and interpretations initially were performed by the site's cardiologist or other qualified site personnel. To improve upon the accuracy of these locally-analyzed data, a central digitized blinded analysis of all ECGs collected to date was undertaken by a core ECG laboratory (EResearchTechnology in Philadelphia, Pa.). Due to some issues with readability, 72 patients (out of 76 patients enrolled in the study) were included in this analysis. […] The phase I study was not designed to define the ECG effects of the compound, which will be more closely monitored in the phase II study.

[5] = FLT3-ITD patients, 200 mg continuous dosing (n=5)
[6] = patients with FLT3-ITD mutation (n=17)

SMILES: CC(C)(C)c1cc(NC(=O)Nc2ccc(-c3cn4c(n3)sc3cc(OCCN5CCOCC5)ccc34)cc2)no1 [compound of formula I, N-(5-tert-butyl-isoxazol-3-yl)-N′-{4-[7-(2-morpholin-4-yl-ethoxy)imidazo[2,1-b][1,3]benzothiazol-2-yl]phenyl}urea]
- dose dependence of steady-state plasma exposure (AUC) ([1]; human, in vivo): increased in a dose proportional manner
- peak and trough variation of plasma levels ([1]; human, in vivo): minimal peak and trough variation
- time to steady-state plasma exposure ([1]; human, in vivo): ≤ 8 days
- coefficient of variation (CV %) for AUC0-24 at steady-state ([1]; human, in vivo, 12 mg): 33%
- coefficient of variation (CV %) for AUC0-24 at steady-state ([1]; human, in vivo, 450 mg): 82%
- half-life ([1]; human, in vivo, effective half-life): ~36 h
- oral bioavailability ([1]; human, in vivo, po): orally bioavailable
- half-life ([1]; human, in vivo, terminal T1/2): 31.2 h
- target organ toxicity [2]: Bone marrow hypocellularity
- bone marrow responses within the first 29 days of treatment (Cycle 1) ([3]; 15/22 responders): 68%
- CR [3, 5]: 1 patients
- CRi [3, 5]: 1 patients
- CRp [3, 5]: 1 patients
- PR [3, 5]: 2 patients
- overall response rate (CR+CRp+CRi+PR) ([3]; FLT3-ITD patients, 200 mg continuous dosing, 5/5): 100%
- CR with complete hematologic recovery ([3]; all 76 patients): 2 patients
- CR with incomplete platelet and neutrophil recovery (CRi) ([3]; all 76 patients): 4 patients
- CR with incomplete platelet recovery (CRp) ([3]; all 76 patients): 4 patients
- patients achieving complete remission (CR, all types) ([3]; all 76 patients): Ten
- patients with partial remission (PR) ([3]; all 76 patients): Fourteen
- peripheral blast reduction (>25% at baseline with >50% decrease post-treatment to 0-25%) ([3]; all patients): most patients had a peripheral blast reduction
- overall response (CR+PR) ([3]; all patients, 12 mg-450 mg, 24/76): 32%
- patients reporting a response after Cycle 2 ([3]; of the remaining 7 responders): 3 patients
- patients reporting a response within 57 days (Cycle 2) ([3]; of the remaining 7 responders): 4 patients
- CR [3, 6]: 1 patients
- CRi [3, 6]: 3 patients
- CRp [3, 6]: 1 patients
- PR [3, 6]: 6 patients
- overall response rate ([3]; patients with FLT3-ITD mutation, 11/17): 65%
- median duration of remission ([3]; range, 4 to 61+ weeks): 14.1 weeks
- effect on pSTAT5 (pSTAT5): dose-dependent effect is consistent with that observed with pFLT3
- 30-day treatment-related mortality ([4]; 76 patients, to date): no 30-day treatment-related mortality
- patients who died during the study ([4]; all deaths disease or comorbidity associated, not treatment related): 12 patients
- grade of the majority of treatment-related adverse events ([4]; both, human, in vivo): CTC Grade 1 and 2
- patients reporting SAEs initially considered related to treatment ([4]; both, human, in vivo): 7.9%
- patients reporting serious adverse events (CTC Grade 3 or greater) ([4]; both, human, in vivo): 50%
- total number of serious adverse events reported ([4]; both, human, in vivo): 94
- liver or kidney abnormalities as drug-related serious adverse events (BUN, creatinine, ALT, AST, ALP, bilirubin) ([4]; human, in vivo): no liver or kidney abnormalities
- patients with Grade 3 QTc prolongation of >500 ms (dose-limiting toxicity) ([4]; human, in vivo): three

SMILES: CC(C)(CO)c1cc(NC(=O)Nc2ccc(-c3cn4c(n3)sc3cc(OCCN5CCOCC5)ccc34)cc2)no1 [compound of formula II]
- average steady state plasma ratio of formula II/I ([1]; human plasma, n=60): 0.4
- plasma ratio of compounds of formula II/I, highest in one patient ([1]; human plasma, n=60): ≤ 3.14
- steady-state plasma level ([1]; patients dosed at 200 mg of the compound of formula I): ~300 ng/mL

Reference: US9555040B2, “Methods of treating proliferative diseases” (Ambit Biosciences Corporation, priority 2009, dated 2017)
